Holding throughout (format): cell-based
One assay concerns the target T1, human TLR9 (Homo sapiens, UniProt Q9NR96).
T1 construct: host or cells: HEK-Blue cells
T1 sequence (Q9NR96 26-1032): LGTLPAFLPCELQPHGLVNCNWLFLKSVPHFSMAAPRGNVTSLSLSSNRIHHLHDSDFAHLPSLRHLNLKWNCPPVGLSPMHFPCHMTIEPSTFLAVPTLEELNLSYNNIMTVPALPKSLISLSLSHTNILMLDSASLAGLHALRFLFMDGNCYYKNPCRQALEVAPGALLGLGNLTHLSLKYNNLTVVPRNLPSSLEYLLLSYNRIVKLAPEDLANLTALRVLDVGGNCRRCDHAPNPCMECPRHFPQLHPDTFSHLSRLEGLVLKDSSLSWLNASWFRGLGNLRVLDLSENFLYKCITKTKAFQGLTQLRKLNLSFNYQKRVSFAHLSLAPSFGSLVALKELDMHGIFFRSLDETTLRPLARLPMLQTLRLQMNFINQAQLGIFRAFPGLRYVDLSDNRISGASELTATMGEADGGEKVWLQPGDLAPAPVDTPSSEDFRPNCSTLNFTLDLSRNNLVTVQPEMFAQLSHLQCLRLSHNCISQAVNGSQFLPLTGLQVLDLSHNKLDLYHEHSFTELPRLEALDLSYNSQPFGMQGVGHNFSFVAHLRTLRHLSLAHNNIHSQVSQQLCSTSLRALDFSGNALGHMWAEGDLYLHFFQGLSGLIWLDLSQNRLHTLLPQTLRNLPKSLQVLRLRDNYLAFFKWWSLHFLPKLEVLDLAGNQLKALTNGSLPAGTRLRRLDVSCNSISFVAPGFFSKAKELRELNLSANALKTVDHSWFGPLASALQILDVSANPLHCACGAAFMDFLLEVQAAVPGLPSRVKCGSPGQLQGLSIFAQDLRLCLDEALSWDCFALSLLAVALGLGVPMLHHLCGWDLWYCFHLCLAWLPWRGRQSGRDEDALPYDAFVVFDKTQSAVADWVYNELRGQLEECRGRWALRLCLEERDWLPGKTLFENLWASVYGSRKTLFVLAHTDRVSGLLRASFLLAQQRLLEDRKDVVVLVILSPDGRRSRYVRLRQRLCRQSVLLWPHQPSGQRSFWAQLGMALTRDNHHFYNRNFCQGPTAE
Kind of assay: TLR9 inhibition reporter assay (HEK-Blue cells, SEAP reporter). Particulars: HEK-Blue cells overexpressing human TLR9; stimulated with ODN2006 5 nM; SEAP read after 22 hour; dose range 0.05 nM-50 μM. The method in brief:
(§1)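 HEK-Blue cells with NF-κB/AP-1-driven SEAP pre-treated 30 min with compounds (0.05 nM-50 μM), then stimulated with gardiquimod 7.5 μM (TLR7), R848 15.9 μM (TLR8) or ODN2006 5 nM (TLR9). SEAP read after 22 h at 37° C; % inhibition relative to agonist+DMSO and reference-inhibitor wells.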
Background: A reporter such as luciferase makes a cellular process visible.

Another assay concerns the target T2, human TLR7 (Homo sapiens, UniProt Q9NYK1).
T2 construct: host or cells: HEK-Blue cells
T2 sequence (Q9NYK1 27-1049): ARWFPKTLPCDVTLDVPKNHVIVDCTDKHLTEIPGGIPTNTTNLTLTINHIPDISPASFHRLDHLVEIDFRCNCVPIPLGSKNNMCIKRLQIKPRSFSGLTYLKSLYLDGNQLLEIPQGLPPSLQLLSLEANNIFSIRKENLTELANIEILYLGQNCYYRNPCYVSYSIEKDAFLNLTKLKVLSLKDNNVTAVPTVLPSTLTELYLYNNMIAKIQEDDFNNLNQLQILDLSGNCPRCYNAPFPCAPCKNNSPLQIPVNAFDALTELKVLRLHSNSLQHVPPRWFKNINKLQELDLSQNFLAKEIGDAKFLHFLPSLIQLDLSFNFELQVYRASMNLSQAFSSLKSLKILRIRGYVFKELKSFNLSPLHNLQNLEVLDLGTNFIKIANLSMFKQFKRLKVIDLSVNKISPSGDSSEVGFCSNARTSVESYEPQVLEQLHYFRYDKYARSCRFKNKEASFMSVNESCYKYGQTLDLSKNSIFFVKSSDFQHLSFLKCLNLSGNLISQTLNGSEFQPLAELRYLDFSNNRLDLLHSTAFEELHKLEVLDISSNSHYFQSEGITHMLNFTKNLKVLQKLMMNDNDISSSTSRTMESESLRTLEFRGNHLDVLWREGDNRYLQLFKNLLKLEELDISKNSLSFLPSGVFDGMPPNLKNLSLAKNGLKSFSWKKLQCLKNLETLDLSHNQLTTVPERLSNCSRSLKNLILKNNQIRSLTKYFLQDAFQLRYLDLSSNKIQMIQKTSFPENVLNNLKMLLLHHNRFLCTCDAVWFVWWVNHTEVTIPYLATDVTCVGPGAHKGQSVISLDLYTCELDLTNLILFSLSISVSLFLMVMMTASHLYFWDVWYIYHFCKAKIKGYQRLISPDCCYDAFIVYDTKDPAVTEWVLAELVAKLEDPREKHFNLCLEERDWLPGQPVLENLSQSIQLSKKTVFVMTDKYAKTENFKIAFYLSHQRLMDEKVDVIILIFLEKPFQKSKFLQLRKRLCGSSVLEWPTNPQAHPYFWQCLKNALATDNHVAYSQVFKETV
Kind of assay: TLR7 inhibition reporter assay (HEK-Blue cells, SEAP reporter). Particulars: HEK-Blue cells overexpressing human TLR7; stimulated with gardiquimod 7.5 μM; SEAP read after 22 hour; dose range 0.05 nM-50 μM. The method in brief: as §1

The target of a further assay is T3, human TLR8 (Homo sapiens, UniProt Q9NR97).
T3 construct: host or cells: HEK-Blue cells
T3 sequence (Q9NR97 27-1041): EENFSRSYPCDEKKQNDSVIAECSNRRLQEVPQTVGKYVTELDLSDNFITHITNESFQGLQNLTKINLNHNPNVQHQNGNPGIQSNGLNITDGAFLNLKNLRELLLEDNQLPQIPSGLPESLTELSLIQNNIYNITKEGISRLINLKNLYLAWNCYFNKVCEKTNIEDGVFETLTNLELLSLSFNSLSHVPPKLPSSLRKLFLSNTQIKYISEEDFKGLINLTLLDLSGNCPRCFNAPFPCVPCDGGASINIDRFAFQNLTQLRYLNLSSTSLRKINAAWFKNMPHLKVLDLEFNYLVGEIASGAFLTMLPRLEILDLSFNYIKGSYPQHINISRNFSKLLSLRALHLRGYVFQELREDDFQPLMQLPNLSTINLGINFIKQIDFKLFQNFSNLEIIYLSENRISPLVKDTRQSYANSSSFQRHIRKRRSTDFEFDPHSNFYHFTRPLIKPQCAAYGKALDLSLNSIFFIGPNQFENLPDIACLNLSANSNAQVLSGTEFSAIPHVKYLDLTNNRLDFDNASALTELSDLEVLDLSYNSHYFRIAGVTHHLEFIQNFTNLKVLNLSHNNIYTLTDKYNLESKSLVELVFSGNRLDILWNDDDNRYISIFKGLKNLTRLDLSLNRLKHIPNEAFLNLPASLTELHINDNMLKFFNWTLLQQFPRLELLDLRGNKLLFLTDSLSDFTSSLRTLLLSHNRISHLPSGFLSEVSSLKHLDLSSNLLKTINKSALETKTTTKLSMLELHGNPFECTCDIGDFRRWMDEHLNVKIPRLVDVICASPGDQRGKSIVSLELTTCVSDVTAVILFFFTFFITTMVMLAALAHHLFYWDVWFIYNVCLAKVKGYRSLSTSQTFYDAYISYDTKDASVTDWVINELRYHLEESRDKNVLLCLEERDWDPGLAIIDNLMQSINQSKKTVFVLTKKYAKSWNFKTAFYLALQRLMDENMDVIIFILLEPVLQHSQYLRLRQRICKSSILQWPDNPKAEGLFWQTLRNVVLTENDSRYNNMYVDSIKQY
The experiment in a line: TLR8 inhibition reporter assay (HEK-Blue cells, SEAP reporter). Particulars: HEK-Blue cells overexpressing human TLR8; stimulated with R848 15.9 μM; SEAP read after 22 hour; dose range 0.05 nM-50 μM. The method in brief: as §1

Our source for the IC50 values is patent US20260183275A1, “SUBSTITUTED QUINOLONE COMPOUNDS USEFUL AS INHIBITORS OF TLR9” (Bristol-Myers Squibb Company, priority 2022, published 2026).

As for `CC(C)N1CCN(c2ccc(-c3ccc4[nH]c(=O)c(-c5ccc(Cl)cc5Cl)cc4c3)cc2)CC1` [Example 38, 3-(2,4-dichlorophenyl)-6-{4-[4-(propan-2-yl)piperazin-1-yl]phenyl}-1,2-dihydroquinolin-2-one], the IC50 (commonly the concentration needed to halve the response being measured) against human TLR9 was 376 nM; at human TLR7, 8880 nM; against human TLR8, not below 50000 nM.
Consider `CC(C)N1CCN(c2ccc(-c3ccc4[nH]c(=O)c(-c5ccc(Cl)cc5)cc4c3)cc2)CC1` [Example 39, 3-(4-chlorophenyl)-6-{4-[4-(propan-2-yl)piperazin-1-yl]phenyl}-1,2-dihydroquinolin-2-one], for which the IC50 is 387 nM at human TLR9, not below 50000 nM on human TLR7 and not below 50000 nM against human TLR8.
Consider `CC(C)N1CCN(c2ccc(-c3ccc4[nH]c(=O)c(-c5c(F)c(F)c(F)c(F)c5F)cc4c3)cc2)CC1` [Example 40, 3-(2,3,4,5,6-pentafluorophenyl)-6-{4-[4-(propan-2-yl)piperazin-1-yl]phenyl}-1,2-dihydroquinolin-2-one], for which the results for the IC50 against human TLR9, at human TLR7 and against human TLR8 were 399 nM, not below 50000 nM and not below 50000 nM, respectively.
Regarding `CC(C)N1CCN(c2ccc(-c3ccc4[nH]c(=O)c(-c5c(F)cc(F)cc5F)cc4c3)cc2)CC1` [Example 41, 6-{4-[4-(propan-2-yl)piperazin-1-yl]phenyl}-3-(2,4,6-trifluorophenyl)-1,2-dihydroquinolin-2-one], the IC50 was 411 nM on human TLR9, 4770 nM against human TLR7 and not below 50000 nM at human TLR8.
As to `CC(C)N1CCN(c2ccc(-c3ccc4[nH]c(=O)c(-c5ccccc5F)cc4c3)cc2)CC1` [Example 42, 3-(2-fluorophenyl)-6-{4-[4-(propan-2-yl)piperazin-1-yl]phenyl}-1,2-dihydroquinolin-2-one], the IC50 was 427 nM against human TLR9, 2140 nM against human TLR7 and 2470 nM against human TLR8.
In the same order, the values of `COc1ccc(-c2cc3cc(-c4ccc(N5CCN(C(C)C)CC5)cc4)ccc3[nH]c2=O)cc1OC` [Example 43, 3-(3,4-dimethoxyphenyl)-6-{4-[4-(propan-2-yl)piperazin-1-yl]phenyl}-1,2-dihydroquinolin-2-one] are 553 nM, 5020 nM and not below 50000 nM.
In the same order, the values of `CC(C)N1CCN(c2ccc(-c3ccc4[nH]c(=O)c(-c5ccccc5Cl)cc4c3)cc2)CC1` [Example 44, 3-(2-chlorophenyl)-6-{4-[4-(propan-2-yl)piperazin-1-yl]phenyl}-1,2-dihydroquinolin-2-one] are 701 nM, 5610 nM and not below 50000 nM.
As to `CC(C)N1CCN(c2ccc(-c3ccc4[nH]c(=O)c(-c5cccc(C(F)(F)F)c5)cc4c3)cc2)CC1` [Example 45, 6-{4-[4-(propan-2-yl)piperazin-1-yl]phenyl}-3-[3-(trifluoromethyl)phenyl]-1,2-dihydroquinolin-2-one], the IC50 against human TLR9 was 734 nM; on human TLR7, not below 50000 nM; against human TLR8 it was not below 50000 nM.
Turning to `CC(C)N1CCN(c2ccc(-c3ccc4[nH]c(=O)c(-c5cccc(OC(F)(F)F)c5)cc4c3)cc2)CC1` [Example 46, 6-{4-[4-(propan-2-yl)piperazin-1-yl]phenyl}-3-[3-(trifluoromethoxy)phenyl]-1,2-dihydroquinolin-2-one], the IC50 against human TLR9 was 781 nM; on human TLR7, not below 50000 nM; against human TLR8, not below 50000 nM.
`CC(C)N1CCN(c2ccc(-c3ccc4[nH]c(=O)c(-c5cccc(F)c5)cc4c3)cc2)CC1` [Example 47, 3-(3-fluorophenyl)-6-{4-[4-(propan-2-yl)piperazin-1-yl]phenyl}-1,2-dihydroquinolin-2-one]: the IC50 is 857 nM against human TLR9, 8620 nM on human TLR7 and not below 50000 nM on human TLR8.
Turning to `CC(C)N1CCN(c2ccc(-c3ccc4[nH]c(=O)c(-c5cn(C)c6ccccc56)cc4c3)cc2)CC1` [Example 48, 3-(1-methyl-1H-indol-3-yl)-6-(4-[4-(propan-2-yl)piperazin-1-yl]phenyl}-1,2-dihydroquinolin-2-one], the results for the IC50 against human TLR9, against human TLR7 and at human TLR8 were 1160 nM, 2150 nM and 6880 nM, respectively.
With `CNC(=O)Nc1ccc(-c2cc3cc(-c4ccc(N5CCN(C(C)C)CC5)cc4)ccc3[nH]c2=O)cc1` [Example 49, 3-methyl-1-[4-(2-oxo-6-{4-[4-(propan-2-yl)piperazin-1-yl]phenyl}-1,2-dihydroquinolin-3-yl)phenyl]urea], the IC50 was 239 nM against human TLR9, 5420 nM on human TLR7 and not below 50000 nM against human TLR8.
As to `CC(C)N1CCN(c2ccc(-c3ccc4c(c3)cc(-c3ccc(NC(=O)c5ccccn5)cc3)c(=O)n4C)cc2)CC1` [Example 50, N-[4-(1-methyl-2-oxo-6-{4-[4-(propan-2-yl)piperazin-1-yl]phenyl}-1,2-dihydroquinolin-3-yl)phenyl]pyridine-2-carboxamide], the IC50 at human TLR9 is 242 nM; against human TLR7, 15600 nM; against human TLR8, not below 50000 nM.
